We go through 1 compound from patent US11839623B2, “Antiviral prodrugs and formulations thereof” (BOARD OF REGENTS OF THE UNIVERSITY OF NEBRASKA, priority 2018, dated 2023).

Data set [1] deals with monocyte-derived macrophages (MDM). In words: Macrophage uptake and retention of ABC, NMABC, NPABC. Type of data set: cell-based, human. The settings on record: 100 μM, 8 hours loading. The protocol:
Macrophage uptake and retention. Human monocytes were obtained by leukapheresis from HIV-1/2 and hepatitis B seronegative donors, and then purified by counter-current centrifugal elutriation as described (Balkundi, et al., Intl. J. Nanomed. (2011) 6:3393-3404; Nowacek, et al., Nanomed. (2009) 4(8):903-917). Human monocytes were plated in a 12-well plate at a density of 1.0×10^6 cells per well using DMEM supplemented with 10% heat-inactivated pooled human serum, 1% glutamine, 10 μg/mL ciprofloxacin, and 50 μg/mL gentamicin. Cells were maintained at 37° C. in a 5% CO2 incubator. After 7 days of differentiation in the presence of 1000 U/mL recombinant human macrophage colony stimulating factor (MCSF), MDM were treated with 100 μM ABC, nanoformulated myristoylated ABC (NMABC; described in PCT/US15/54826), or NPABC. Uptake of drug was assessed by measurements of intracellular drug concentrations at 1, 2, 4 and 8 hours after treatment. For drug retention studies, cells were treated for 8 hours then washed with PBS and maintained with half-media changes every other day until collection at days 1, 5, 10, 15 and 20. For both studies, adherent MDM were washed with PBS, then scraped into PBS, and counted at indicated time points using an Invitrogen Countess Automated Cell Counter (Carlsbad, Calif.). […] Drug content was determined by UPLC-UV/Vis.

Data set [2] deals with HIV-1ADA. In words: IC50 determination of ABC, MABC, PABC in MDM challenged with HIV-1ADA (RT activity). Conditions: Human immunodeficiency virus 1, 240 h, HIV-1ADA MOI 0.1, RT activity day 10, read-out: IC50 on reverse transcriptase. Type of data set: cell-based. Here is the method:
Antiretroviral activities. Antiretroviral efficacy was determined by measurements of HIV reverse transcriptase (RT) activity. For IC50 determination, MDM were exposed to various concentrations (0.01-1000 nM) of ABC, MABC or PABC for 1 hour followed by challenge with HIV-1ADA at a multiplicity of infection (MOI) of 0.1 infectious particles per cell for 4 hours. Following viral challenge, cells were washed and incubated with the same concentration of drug used before infection for an additional 10 days in culture. Culture fluids were collected on day 10 for the measurement of RT activity. To assess antiretroviral efficacy, MDM were treated with 100 μM ABC, PABC or NPABC as described above for 8 hours. After treatment, cells were washed with PBS and cultured with fresh media, with half-media exchanges every other day. At 0, 4, 12 hours, and 1, 5, 10, 15 or 20 days after treatment, cells were challenged with HIV-1ADA at an MOI of 0.1 infectious particles per cell for 16 hours. After viral infection, the cells were cultured an additional 10 days with half-media exchanges every other day. Culture fluids were collected for measurement of RT activity. Cells were fixed with 4% PFA and expression of HIV-1 p24 antigen was determined by immunocytochemistry.

In data set [3] the test system is HIV-1ADA. In words: Antiretroviral efficacy of nanoformulations in MDM challenged with HIV-1ADA (RT activity, p24). Conditions: 100 μM 8 hours, all time points. The data set is classed as cell-based. Here is the method: Antiretroviral efficacy of nanoformulations: Antiviral efficacies of ABC and the ProTide nanoformulations in MDM were assessed as described (Singh, et al., Nanomedicine (2016) 11:1913-1927). MDM were treated with 100 μM different nanoformulations for 8 hours. Then nanoformulation-containing medium was replaced with fresh medium after washing MDM with PBS twice. Half media changes were conducted every other day. At predetermined time points, days 1, 5, 10, 15, 20, 25 and 30, MDM were infected with HIV-1ADA for 4 hours at a MOI of 0.1 and cultured with every-other-day half media changes for an additional 10 days. At day 10, supernatant was collected for RT assay and MDM were fixed with paraformaldehyde and immunostained for expression of HIVp24. Untreated, uninfected MDM served as negative controls (control), while MDM exposed to HIV-1ADA but not treated with nanoformulations, served as positive controls (HIV-1). For NM3ABC, a concentration response study was also conducted. MDM were treated with 1, 10, 25, 50 or 100 μM NM3ABC for 8 hours. The treated MDM were then washed twice with PBS. MDM were cultured for an additional 30 days in fresh media with half media changes every other day. At day 30, MDM were challenged with HIV-1ADA at a MOI of 0.1 for 4 hours. Excess virus was washed out with PBS and MDM were cultured for another 10 days. […]

Data set [4] has as its system monocyte-derived macrophages (MDM). In words: Intracellular CBV-TP in MDM after 100 μM ABC or ProTide nanoformulations (uptake and retention). Type of data set: cell-based. The settings on record: human. Here is the method:
Briefly, MDM were treated with different nanoformulations at a concentration of 100 μM for 1, 2, 4 and 8 hours. At select time points, adherent MDM were collected in 1 mL PBS after washing with 1 mL PBS twice. MDM were pelleted by centrifugation at 3,000 rpm for 8 minutes. The cell pellet was reconstituted in 200 μl methanol and probe sonication (10 seconds) was used to break the cells and extract drugs. After probe sonication, cell debris was pelleted by centrifugation at 14,000 rpm for 10 minutes and 4° C. The supernatant was analyzed for prodrug level using HPLC-UV/Vis. For retention, MDM were treated with 100 μM different nanoformulations for 8 hours. The nanoformulation-containing media were replaced with fresh media after washing MDM with PBS twice. At days 1, 5, 10, 15, 20, 25 and 30, MDM were collected in 1 mL PBS after washing with 1 mL PBS twice. The samples were processed as described above for analysis using HPLC. Intracellular CBV-TP levels were also measured for as an indicator of cell uptake and retention. Briefly, cells were scraped into PBS, pelleted by centrifugation at 3,000 rpm for 8 minutes, and reconstituted in 200 μl 70% methanol. CBV-TP was extracted, and the samples were analyzed by LC-MS/MS as described (Gautam, et al., J. Pharm. Biomed. Anal. (2018) 153:248-259).

In the case of `Nc1nc(NC2CC2)c2ncn([C@H]3C=C[C@@H](CO)C3)c2n1` [ABC, abacavir], the “eliminated from MDM within” value in data set [1] is recorded as “within a day”. Also, the IC50 (as a rule, the concentration that gives 50% inhibition) in the data set with HIV-1ADA [2] stood at 131 nM. Besides, the “protection against viral infection” value in the data set with HIV-1ADA [3] is “minimal protection against viral infection”. Also, the “decrease of CBV-TP from 4 hours to 8 hours” value in data set [4] came to 37%. In addition, the “retention of CBV-TP in MDMs, detected/sustained until day” value in data set [4] (30 day) came to 5 days.
